# Molecular target: T1, PARP15 (Homo sapiens, UniProt Q460N3)
# T1 sequence (Q460N3 1-678): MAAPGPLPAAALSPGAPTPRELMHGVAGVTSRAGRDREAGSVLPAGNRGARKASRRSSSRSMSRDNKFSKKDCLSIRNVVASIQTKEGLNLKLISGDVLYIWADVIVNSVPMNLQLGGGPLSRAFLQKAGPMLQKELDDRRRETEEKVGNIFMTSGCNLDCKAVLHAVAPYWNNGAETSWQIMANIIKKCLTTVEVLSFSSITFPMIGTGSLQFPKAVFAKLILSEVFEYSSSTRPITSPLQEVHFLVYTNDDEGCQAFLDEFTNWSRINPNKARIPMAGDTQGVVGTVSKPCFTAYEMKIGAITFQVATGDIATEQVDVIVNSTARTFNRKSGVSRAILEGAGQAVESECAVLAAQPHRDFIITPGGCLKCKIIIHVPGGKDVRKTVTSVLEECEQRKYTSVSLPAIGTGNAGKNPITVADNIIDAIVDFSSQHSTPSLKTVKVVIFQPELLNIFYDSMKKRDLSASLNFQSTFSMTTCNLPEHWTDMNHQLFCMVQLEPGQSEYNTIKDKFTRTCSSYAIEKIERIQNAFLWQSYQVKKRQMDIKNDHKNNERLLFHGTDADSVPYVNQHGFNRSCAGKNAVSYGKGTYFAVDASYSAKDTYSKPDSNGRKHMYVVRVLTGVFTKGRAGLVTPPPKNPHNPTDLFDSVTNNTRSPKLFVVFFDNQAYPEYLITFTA
# Assay: biochemical
structure (smiles),measurement,value
"Nc1nnc2sc3cc(O)ccc3n12 [Compound 109, 3-Amino[1,2,4]triazolo[3,4-b][1,3]benzothiazol-7-ol]",IC50,680 nM

# — patent publication US20250177359A1, “COMPOUNDS FOR USE IN THE TREATMENT OF CANCER AND INFLAMMATORY CONDITIONS” (priority 2022, published 2025)
